Several values for one entry are separate records, joined by “and”; a condition that tells them apart may be missing. Equal values may be shown once.
| Structure (SMILES) | melting point |
| --- | --- |
| CC(=O)C1=C2C=CCC=C2N=C1 [3-Acetylindole] | 194 °C |
| O=C1SCCN1C(=O)c1ccccc1 [3-Benzoyl-1,3-thiazolidin-2-one] | 121 °C |
| Cc1ccc(N)cc1Cl [3-Chloro-4-methylaniline] | 26 °C |
| Oc1cccc(Cl)c1 [3-Chlorophenol] | 33 °C and 32.6 °C |
| CC(=O)Oc1cccc(-c2ccccc2)c1 [3-acetoxybiphenyl] | 34 °C |
| CC(=O)C1=CCC2(C)C(CCC3C4CCC(=O)C4(C)CCC32)C1 (stereo not drawn) [3-acetylandrost-2-en-17-one] | 153 °C |
| CC(N)CCc1ccccc1 (stereo not drawn) [3-amino-1-phenylbutane] | -50 °C |
| NC1=NN(c2ccccc2)CC1 [3-amino-4,5-dihydro-1-phenyl-1h-pyrazole] | 169 °C |
| Nc1n[nH]cc1Br [3-amino-4-bromo-1h-pyrazole] | 136 °C |
| Nc1cccc2c(=O)[nH][nH]c(=O)c12 [3-aminophthalhydrazide] | 328 °C |
| COc1ccc(C(=O)O)cc1OCc1ccccc1 [3-benzyloxy-4-methoxybenzoic acid] | 180 °C |
| O=C(O)C(CBr)CBr [3-bromo-2-(bromomethyl)propionic acid] | 100 °C |
| CCOC1OC(C(N)=O)=CCC1Br (stereo not drawn) [3-bromo-2-ethoxy-3,4-dihydro-2H-pyran-6-carboxamidato] | 142 °C |
| [O-][n+]1cccc(Br)c1 [3-bromopyridine n-oxide] | 35 °C |
| Brc1cccnc1 [3-bromopyridine] | -27 °C |
| OB(O)c1ccnc(F)c1Cl [3-chloro-2-fluoropyridine-4-boronic acid] | 128 °C |
| O=C(CCCl)c1ccc(F)cc1 [3-chloro-4'-fluoropropiophenone] | 48 °C |
| O=Cc1ccc(F)c(Cl)c1 [3-chloro-4-fluorobenzaldehyde] | 27 °C |
| COc1cc(Cl)cc(B(O)O)c1 [3-chloro-5-methoxybenzeneboronic acid] | 187 °C |
| O=C(O)c1sc2ccccc2c1Cl [3-chlorobenzo[b]thiophene-2-carboxylic acid] | 266 °C |

| Structure (SMILES) | melting point |
| --- | --- |
| Oc1cccc(Cl)c1 [3-chlorophenol] | 32.5 °C |
| O=C(O)COc1cccc(Cl)c1 [3-chlorophenoxyacetic acid] | 108 °C |
| N#Cc1cccc(C=O)c1 [3-cyanobenzaldehyde] [listing 1 of 2 here] | 77 °C |
| N#Cc1cccc(C=O)c1 [3-cyanobenzaldehyde] [listing 2 of 2 here] | 77 °C |
| N#Cc1ccc[n+]([O-])c1 [3-cyanopyridine 1-oxide] | 177 °C |
| CCC1(OC(C)=O)CCC2(C)C(CCC3C4CCC(=O)C4(C)CCC32)C1 (stereo not drawn) [3-ethyl-17-oxoandrostan-3-yl acetate] | 126 °C |
| CCCCC(=O)CC [3-heptanone] | -37 °C |
| COc1ccc(-c2oc3c(OC)c(OC)ccc3c(=O)c2O)cc1 [3-hydroxy-4',7,8-trimethoxyflavone] | 198 °C |
| Cc1ccc(C)c2c1C(=O)OC2O (stereo not drawn) [3-hydroxy-4,7-dimethyl-2-benzofuran-1(3H)-one] | 158 °C |
| C[C@]12CCC(O)CC1=CC(=O)[C@@H]1[C@@H]2CC[C@]2(C)C(=O)CC[C@@H]12 (stereo partly drawn) [3-hydroxyandrost-5-ene-7,17-dione] | 238 °C |
| O=C(O)CCI [3-iodopropionic acid] | 82 °C |
| COc1cc(N)ccc1C [3-methoxy-4-methylaniline] | 58 °C |
| C=CC(C)CC (stereo not drawn) [3-methyl-1-pentene] | -153 °C |
| CC1=CC(O)(c2ccccc2)c2ccccc21 (stereo not drawn) [3-methyl-1-phenyl-1H-inden-1-ol] | 76 °C |
| CC(=O)C(C)C [3-methyl-2-butanone] | -92 °C |
| Cc1n[nH]cc1-c1ccccc1 [3-methyl-4-phenyl-1h-pyrazole] | 142 °C |
| Cc1cc(-c2ccccc2)[nH]n1 [3-methyl-5-phenyl-1h-pyrazole] | 126 °C |
| CC(C)CC(=O)O [3-methylbutanoic_acid] | -30 °C |
| CCC(C)CC [3-methylpentane] | -118 °C |
| CCC(C)CC(=O)O (stereo not drawn) [3-methylvaleric acid] | -42 °C |

| Structure (SMILES) | melting point |
| --- | --- |
| O=Cc1ccc(N2CCCC2)c([N+](=O)[O-])c1 [3-nitro-4-(1-pyrrolidinyl)benzaldehyde] | 103 °C |
| O=[N+]([O-])c1cccc(CBr)c1 [3-nitrobenzyl_bromide] | 59 °C |
| O=[N+]([O-])c1cccc(O)c1 [3-nitrophenol] | 96 °C |
| CCCCCC(O)CC (stereo not drawn) [3-octanol] [listing 1 of 2 here] | -45 °C |
| CCCCCC(O)CC (stereo not drawn) [3-octanol] [listing 2 of 2 here] | -45 °C |
| CC(=O)OC1CCC2C3CCC4=CC(=O)CCC4(C)C3CCC12C (stereo not drawn) [3-oxoandrost-4-en-17-yl acetate] | 140 °C |
| N#CCCc1ccccc1 [3-phenylpropionitrile] | -2 °C |
| CC(C)(C)c1ccc2c(c1)OCCOCCOc1cc(C(C)(C)C)ccc1OCCOCCO2 [4',4''(5'')-di-tert-butyldibenzo-18-crown-6] | 110 °C |
| CC(=O)c1ccc(C(F)(F)F)cc1 [4'-(trifluoromethyl)acetophenone] | 32 °C |
| CC(=O)Nc1ccc(Br)cc1OC(F)(F)F [4'-bromo-2'-(trifluoromethoxy)acetanilide] | 136 °C |
| CC(=O)Nc1ccc(Cl)cc1C [4'-chloro-2'-methylacetanilide] | 140 °C |
| Clc1cc(-c2ccccn2)nc(-c2ccccn2)c1 [4'-chloro-2,2':6',2''-terpyridine] | 150 °C |
| CC(=O)c1ccc(Cl)cc1 [4'-chloroacetophenone] | 19 °C |
| COc1cc(C(C)=O)ccc1F [4'-fluoro-3'-methoxyacetophenone] | 52 °C |
| OC(c1ccc(Cl)cc1)(c1ccc(Cl)cc1)c1ccc(Cl)cc1 [4,4',4''-trichlorotrityl alcohol] | 96 °C |
| CC/C(=C(/CC)c1ccc(O)cc1)c1ccc(O)cc1 [4,4'-(3E)-Hex-3-ene-3,4-diyldiphenol] | 170 °C |
| ClC(Cl)=C(c1ccc(Cl)cc1)c1ccc(Cl)cc1 [4,4'-DDE] | 89 °C |
| Clc1ccc(C(c2ccc(Cl)cc2)C(Cl)(Cl)Cl)cc1 [4,4'-DDT] | 110 °C |
| Cc1ccc(CCc2ccc(C)cc2)cc1 [4,4'-Dimethylbibenzyl] | 78 °C |
| c1cc(-c2ccncc2)ccn1 [4,4'-bipyridine] | 113 °C |

Results, then the compound that gave them:

| melting point | Structure (SMILES) |
| --- | --- |
| 89 °C | CC(C)(C)[Si](C)(C)Oc1cccc(B(O)O)c1 [3-(tert-butyldimethylsiloxy)benzeneboronic acid] |
| 94 °C | O=C(O)/C=C/c1cccc(OC(F)(F)F)c1 [3-(trifluoromethoxy)cinnamic acid] |
| 157 °C | O=C(O)c1cccc(Br)c1 [3-Bromobenzoic acid] |
| 148 °C | CC(=O)Nc1cccc(O)c1 [3-acetamidophenol] |
| 203 °C | CC(=O)c1cccc(B(O)O)c1 [3-acetylbenzeneboronic acid] |
| 52 °C | N#Cc1cccc(N)c1 [3-aminobenzonitrile] |
| 200 °C | Cc1ccc(C(=O)O)cc1Br [3-bromo-4-methylbenzoic_acid] |
| 156 °C | NS(=O)(=O)c1cccc(Br)c1 [3-bromobenzenesulfonamide] |
| 22 °C | Cc1c(Cl)cccc1C#N [3-chloro-2-methylbenzonitrile] |
| 130 °C | O=Cc1ccc(O)c(Cl)c1 [3-chloro-4-hydroxybenzaldehyde] |
| 148 °C | N#Cc1ccc(O)c(Cl)c1 [3-chloro-4-hydroxybenzonitrile] |
| 183 °C | OB(O)c1cccc(Cl)c1 [3-chlorobenzeneboronic acid] |
| 83 °C | O=C(c1ccccc1)c1cccc(Cl)c1 [3-chlorobenzophenone] |
| -48 °C | Cc1cccc(Cl)c1 [3-chlorotoluene] |
| 82 °C | N#Cc1cccc(O)c1 [3-cyanophenol] |
| -4 °C | CCc1cccc(O)c1 [3-ethylphenol] |
| 132 °C | O=C(O)Cc1ccc(O)c(F)c1 [3-fluoro-4-hydroxyphenylacetic acid] |
| 234 °C | Cc1ccc(B(O)O)cc1F [3-fluoro-4-methylbenzeneboronic acid] |
| 214 °C | OB(O)c1cccc(F)c1 [3-fluorobenzeneboronic acid] |

| melting point | Structure (SMILES) |
| --- | --- |
| 12 °C | Oc1cccc(F)c1 [3-fluorophenol] |
| 46 °C | O=C(O)Cc1cccc(F)c1 [3-fluorophenylacetic acid] |
| 111 °C | O=Cc1cccc(B(O)O)c1 [3-formylbenzeneboronic acid] |
| 168 °C | Cc1ncccc1O [3-hydroxy-2-methylpyridine] |
| 89 °C | CC(=O)c1cccc(O)c1 [3-hydroxyacetophenone] |
| 105 °C | O=Cc1cccc(O)c1 [3-hydroxybenzaldehyde] |
| 209 °C | OB(O)c1cccc(O)c1 [3-hydroxybenzeneboronic acid] |
| 203 °C | O=C(O)c1cccc(O)c1 [3-hydroxybenzoic_acid] |
| 41 °C | Oc1cccc(I)c1 [3-iodophenol] |
| 133 °C | COc1cccc(C(N)=O)c1 [3-methoxybenzamide] |
| 160 °C | COc1cccc(B(O)O)c1 [3-methoxybenzeneboronic acid] |
| 161 °C | Cc1cccc(B(O)O)c1 [3-methylbenzeneboronic acid] |
| 52 °C | O=C=Nc1cccc([N+](=O)[O-])c1 [3-nitrophenyl isocyanate] |
| 57 °C | O=[N+]([O-])c1cccc(N=C=S)c1 [3-nitrophenyl isothiocyanate] |
| -5 °C | C=Cc1cccc([N+](=O)[O-])c1 [3-nitrostyrene] |
| 141 °C | OB(O)c1cccc(Oc2ccccc2)c1 [3-phenoxybenzeneboronic acid] |
| -41 °C | Cc1cccc(C(C)(C)C)c1 [3-tert-butyltoluene] |
| 156 °C | CC(=O)Nc1ccc(Br)cc1C [4'-bromo-2'-methylacetanilide] |
| 114 °C | COc1cc(C(C)=O)ccc1O [4'-hydroxy-3'-methoxyacetophenone] |

Reference: the Bradley open melting point set (2014)
